Reference: patent US8637525B2, “Compounds for the reduction of beta-amyloid production” (Bristol-Myers Squibb Company, priority 2009, dated 2014)

What follows are molecules tested on Aβ1-42 production (assay: Cellular assay for inhibition of Aβ1-42 production (H4 APP751 SWE clone 8.20)). Conditions: 19 h, H4 APP751 SWE clone 8.20 cells, 19 h incubation; class symbols; read-out: Activity Rating (Aβ42 cellular IC50).
Type: cell-based
Procedure, shortened: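 19 h cell treatment, 37 °C/5% CO2. Detection of secreted Aβ42 in the cell plate: 565 (Aβ42-specific, Wallac) and 26D6 (N-terminal, APC), overnight 4 °C. IC50 from fitted curves.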

Row | IC50 [nM] | SMILES
1 | 1.5 to 9.9 | CCNc1nc(Nc2ccc(-n3cnc(Cl)c3)c(OC)c2)nc2c1CN(CC(F)F)CC2c1ccccc1 (stereo not drawn) [Example 197B, N4-ethyl-N2-(3-methoxy-4-(4-chloro-1H-13-imidazol-1-yl)phenyl)-8-phenyl-6-(2,2-difluoroethyl)-5,6,7,8-tetrahydropyrido[4,3-d]pyrimidine-2,4-diamine]
2 | 10 to 100 | CNc1nc(Nc2ccc(-n3cnc(Cl)c3)c(OC)c2)nc2c1/C(=N/OC)CC2c1ccccc1 (stereo not drawn) [Example 201B, (E)-2-(4-(4-chloro-1H-imidazol-1-yl)-3-methoxyphenylamino)-4-(methylamino)-7-phenyl-6,7-dihydro-5H-cyclopenta[d]pyrimidin-5-one O-methyl oxime]
3 | 1.5 to 9.9 | CNc1nc(Nc2ccc(-n3cnc(Cl)c3)c(OC)c2)nc2c1C(O)CC2c1ccccc1 (stereo not drawn) [Example 202, 2-(4-(4-chloro-1H-imidazol-1-yl)-3-methoxyphenylamino)-4-(methylamino)-7-phenyl-6,7-dihydro-5H-cyclopenta[d]pyrimidin-5-ol]
4 | 100 to 1000 | CNc1nc(Nc2ccc(-n3cnc(C#N)c3)c(OC)c2)nc2c1CCC2c1ccccc1 (stereo not drawn) [Example 204B, 1-(2-methoxy-4-(4-(methylamino)-7-phenyl-6,7-dihydro-5H-cyclopenta[d]pyrimidin-2-ylamino)phenyl)-1H-imidazole-4-carbonitrile]
5 | 10 to 100 | COc1cc(Nc2nc3c(c(N4CCC5(C4)OCCO5)n2)CCC3c2ccccc2)ccc1-n1cnc(Cl)c1 (stereo not drawn) [Example 205, N-(4-(4-chloro-1H-imidazol-1-yl)-3-methoxyphenyl)-7-phenyl-4-(1,4-dioxa-7-azaspiro[4.4]nonan-7-yl)-6,7-dihydro-5H-cyclopenta[d]pyrimidin-2-amine]
6 | 100 to 1000 | CNc1nc(Nc2ccc(C#N)cc2)nc2c1CN(S(C)(=O)=O)CC2c1ccc(F)cc1 (stereo not drawn) [Example 207, 4-(8-(4-fluorophenyl)-4-(methylamino)-6-(methylsulfonyl)-5,6,7,8-tetrahydropyrido[4,3-d]pyrimidin-2-ylamino)benzonitrile]
7 | 10 to 100 | CNc1nc(Nc2ccc(-n3cnc(C(F)F)c3)c(OC)c2)nc2c1CCC2c1ccc(F)cc1 (stereo not drawn) [Example 208, N2-(4-(4-(difluoromethyl)-1H-imidazol-1-yl)-3-methoxyphenyl)-7-(4-fluorophenyl)-N4-methyl-6,7-dihydro-5H-cyclopenta[d]pyrimidine-2,4-diamine]
8 | 1.5 to 9.9 | CNc1nc(Nc2ccc(-c3cnn(C)c3)c(OC)c2)nc2c1CCC2c1ccccc1 (stereo not drawn) [Example 209, N2-(3-methoxy-4-(1-methyl-1H-pyrazol-4-yl)phenyl)-N4-methyl-7-phenyl-6,7-dihydro-5H-cyclopenta[d]pyrimidine-2,4-diamine]
9 | 1.5 to 9.9 | COc1cc(Nc2nc(NS(C)(=O)=O)c3c(n2)C(c2ccccc2)CC3)ccc1-n1cnc(Cl)c1 (stereo not drawn) [Example 211, N-(2-(4-(4-chloro-1H-imidazol-1-yl)-3-methoxyphenylamino)-7-phenyl-6,7-dihydro-5H-cyclopenta[d]pyrimidin-4-yl)-N-methanesulfonamide]
10 | > 1000 | Cc1ccc(C(C)C)cc1Nc1nc(Nc2ccc(C#N)cc2)nc2c1CCC2c1ccccc1 (stereo not drawn) [Example 215A, 4-(4-(5-isopropyl-2-methylphenylamino)-7-phenyl-6,7-dihydro-5H-cyclopenta[d]pyrimidin-2-ylamino)benzonitrile]
11 | > 1000 | CNc1nc(Nc2ccnc(C)c2)nc2c1CCC2c1ccccc1 (stereo not drawn) [Example 216, N4-methyl-N2-(2-methylpyridin-4-yl)-7-phenyl-6,7-dihydro-5H-cyclopenta[d]pyrimidine-2,4-diamine]
12 | > 1000 | CNc1nc(Nc2cccc(OC)c2)nc2c1CCC2c1ccccc1 (stereo not drawn) [Example 217, N2-(3-methoxyphenyl)-N4-methyl-7-phenyl-6,7-dihydro-5H-cyclopenta[d]pyrimidine-2,4-diamine]
13 | > 1000 | CNc1nc(Nc2cc(F)cc(F)c2)nc2c1CCC2c1ccccc1 (stereo not drawn) [Example 219, N2-(3,5-difluorophenyl)-N4-methyl-7-phenyl-6,7-dihydro-5H-cyclopenta[d]pyrimidine-2,4-diamine]

Same assay, conditions: 19 h, H4 APP751 SWE clone 8.20 cells, 19 h incubation; read-out: Activity Rating (Aβ42 cellular IC50), numeric value

Row | IC50 [nM] | SMILES
14 | 15 | CNc1nc(Nc2ccc(-n3cnc(C)n3)c(OC)c2)nc2c1CN(C)CC2c1ccc(F)cc1 (stereo not drawn) [Example 198B, 8-(4-fluorophenyl)-N2-(3-methoxy-4-(3-methyl-1H-1,2,4-triazol-1-yl)phenyl)-N4,6-dimethyl-5,6,7,8-tetrahydropyrido[4,3-d]pyrimidine-2,4-diamine]
15 | 5.3 | CNc1nc(Nc2ccc(-n3cnc(Cl)c3)c(OC)c2)nc2c1/C(=N/OC)CC2c1ccccc1 (stereo not drawn) [Example 201, (E)-2-(4-(4-chloro-1H-imidazol-1-yl)-3-methoxyphenylamino)-4-(methylamino)-7-phenyl-6,7-dihydro-5H-cyclopenta[d]pyrimidin-5-one O-methyl oxime]
16 | 19 | CNc1nc(Nc2ccc(-n3cnc(Cl)c3)c(OC)c2)nc2c1CCCC2c1ccccc1 (stereo not drawn) [Example 203, N2-(4-(4-chloro-1H-imidazol-1-yl)-3-methoxyphenyl)-N4-methyl-8-phenyl-5,6,7,8-tetrahydroquinazoline-2,4-diamine]
17 | 19 | CNc1nc(Nc2ccc(-n3cnc(C#N)c3)c(OC)c2)nc2c1CCC2c1ccccc1 (stereo not drawn) [Example 204, 1-(2-methoxy-4-(4-(methylamino)-7-phenyl-6,7-dihydro-5H-cyclopenta[d]pyrimidin-2-ylamino)phenyl)-1H-imidazole-4-carbonitrile]
18 | 15 | COc1cc(Nc2nc3c(c(N4CCC(=O)C4)n2)CCC3c2ccccc2)ccc1-n1cnc(Cl)c1 (stereo not drawn) [Example 206, 1-(2-(4-(4-chloro-1H-imidazol-1-yl)-3-methoxyphenylamino)-7-phenyl-6,7-dihydro-5H-cyclopenta[d]pyrimidin-4-yl)pyrrolidin-3-one]
19 | 61 | COc1cc(Nc2nc3c(c(N(C)S(C)(=O)=O)n2)CCC3c2ccccc2)ccc1-n1cnc(Cl)c1 (stereo not drawn) [Example 210, N-(2-(4-(4-chloro-1H-imidazol-1-yl)-3-methoxyphenylamino)-7-phenyl-6,7-dihydro-5H-cyclopenta[d]pyrimidin-4-yl)-N-methylmethanesulfonamide]
20 | 33 | COc1cc(Nc2nc3c(c(N(C)C(C)=O)n2)CCC3c2ccccc2)ccc1-n1cnc(Cl)c1 (stereo not drawn) [Example 212, N-(2-(4-(4-chloro-1H-imidazol-1-yl)-3-methoxyphenylamino)-7-phenyl-6,7-dihydro-5H-cyclopenta[d]pyrimidin-4-yl)-N-methylacetamide]
21 | 77 | COc1cc(Nc2nc(Nc3cc(C(C)C)ccc3C)c3c(n2)C(c2ccccc2)CC3)ccc1-n1cnc(Cl)c1 (stereo not drawn) [Example 214, N2-(4-(4-chloro-1H-imidazol-1-yl)-3-methoxyphenyl)-N4-(5-isopropyl-2-methylphenyl)-7-phenyl-6,7-dihydro-5H-cyclopenta[d]pyrimidine-2,4-diamine]
22 | 173 | Cc1ccc(C(C)C)cc1Nc1nc(Nc2ccc(C#N)cc2)nc2c1CCC2c1ccccc1 (stereo not drawn) [Example 215B, 4-(4-(5-isopropyl-2-methylphenylamino)-7-phenyl-6,7-dihydro-5H-cyclopenta[d]pyrimidin-2-ylamino)benzonitrile]
23 | 3700 | CNc1nc(Nc2ccc(F)cc2)nc2c1CCC2c1ccccc1 (stereo not drawn) [Example 218, N2-(4-fluorophenyl)-N4-methyl-7-phenyl-6,7-dihydro-5H-cyclopenta[d]pyrimidine-2,4-diamine]

Same assay, conditions: H4 APP751 SWE clone 8.20 cells, 19 h incubation; class symbols; read-out: Activity Rating (Aβ42 cellular IC50)

Row | IC50 [nM] | SMILES
24 | 10 to 100 | CNc1nc(Nc2ccc(-n3cnc(C)n3)c(OC)c2)nc2c1CN(C)CC2c1ccc(F)cc1 (stereo not drawn) [Example 198, 8-(4-fluorophenyl)-N2-(3-methoxy-4-(3-methyl-1H-1,2,4-triazol-1-yl)phenyl)-N4,6-dimethyl-5,6,7,8-tetrahydropyrido[4,3-d]pyrimidine-2,4-diamine]
25 | 10 to 100 | CNc1nc(Nc2ccc(-n3ncnc3C)c(OC)c2)nc2c1CN(C)CC2c1ccc(F)cc1 (stereo not drawn) [Example 199, 8-(4-fluorophenyl)-N2-(3-methoxy-4-(5-methyl-1H-1,2,4-triazol-1-yl)phenyl)-N4,6-dimethyl-5,6,7,8-tetrahydropyrido[4,3-d]pyrimidine-2,4-diamine]
26 | 100 to 1000 | CNc1nc(Nc2ccc(-n3ncnc3C)c(OC)c2)nc2c1CN(C)CC2c1ccc(F)cc1 (stereo not drawn) [Example 199A, 8-(4-fluorophenyl)-N2-(3-methoxy-4-(5-methyl-1H-1,2,4-triazol-1-yl)phenyl)-N4,6-dimethyl-5,6,7,8-tetrahydropyrido[4,3-d]pyrimidine-2,4-diamine]
27 | 1.5 to 9.9 | CNc1nc(Nc2ccc(-n3ncnc3C)c(OC)c2)nc2c1CN(C)CC2c1ccc(F)cc1 (stereo not drawn) [Example 199B, 8-(4-fluorophenyl)-N2-(3-methoxy-4-(5-methyl-1H-1,2,4-triazol-1-yl)phenyl)-N4,6-dimethyl-5,6,7,8-tetrahydropyrido[4,3-d]pyrimidine-2,4-diamine]
28 | 1.5 to 9.9 | CNc1nc(Nc2ccc(-n3cnc(Cl)c3)c(OC)c2)nc2c1CCCC2c1ccccc1 (stereo not drawn) [Example 203A, N2-(4-(4-chloro-1H-imidazol-1-yl)-3-methoxyphenyl)-N4-methyl-8-phenyl-5,6,7,8-tetrahydroquinazoline-2,4-diamine]
29 | 10 to 100 | CNc1nc(Nc2ccc(-n3cnc(Cl)c3)c(OC)c2)nc2c1CCCC2c1ccccc1 (stereo not drawn) [Example 203B, N2-(4-(4-chloro-1H-imidazol-1-yl)-3-methoxyphenyl)-N4-methyl-8-phenyl-5,6,7,8-tetrahydroquinazoline-2,4-diamine]

Same assay, conditions: H4 APP751 SWE clone 8.20 cells, 19 h incubation; read-out: Activity Rating (Aβ42 cellular IC50), numeric value

Row | IC50 [nM] | SMILES
30 | 10 | CNc1nc(Nc2ccc(-n3cnc(Cl)c3)c(OC)c2)nc2c1/C(=N/OC)CC2c1ccccc1 (stereo not drawn) [Example 201A, (E)-2-(4-(4-chloro-1H-imidazol-1-yl)-3-methoxyphenylamino)-4-(methylamino)-7-phenyl-6,7-dihydro-5H-cyclopenta[d]pyrimidin-5-one O-methyl oxime]
